From ChEMBL document CHEMBL4622956, “Amide derivatives of Gallic acid: Design, synthesis and evaluation of inhibitory activities against in vitro α-synuclein aggregation” (Bioorg Med Chem, 2020)

Target: Alpha-synuclein (Homo sapiens, UniProt P37840)
Assay: Inhibition of alpha-synuclein (unknown origin) aggregation incubated for 3 days by thioflavin T based fluorescence assay

Question: How did the IC50 turn out when `O=C(O)c1cc(O)c(O)c(O)c1` [GALLIC ACID] was run?
Answer: The IC50 was 4.43 µM.
